Results taken from patent US20120190752A1, “EXO-S-MECAMYLAMINE METHOD, USE, AND COMPOUND FOR TREATMENT” (Targacept Inc., priority 2009, published 2012).

Tested on: subjects with major depressive disorder (MDD) who were inadequate responders to citalopram
Experiment: CGI-I / CGI-GI (Clinical Global Impression-Improvement), Phase 2b add-on trial
Format: in vivo, human
Source text: The Clinical Global Impression—Improvement scale (CGI-I) is a 7 point scale that requires the clinician to assess how much the patient's illness has improved or worsened relative to a baseline state at the beginning of the intervention. The Clinical Global Impression—Efficacy Index is a 4 point×4 point rating scale that assesses the therapeutic effect of the treatment. In more detail, a multi-center double-blind, randomized, placebo-controlled, parallel group, flexible dose titration study of TC-5214 as adjunctive therapy in subjects with major depressive disorder (MDD) who were inadequate responders to citalopram was conducted in centers in the US and India. The study consisted of a screening period, baseline/washout period, open-label phase, double-blind phase, and a follow-up visit. Subject participation in the study could continue for up to 16 weeks of treatment. Following a washout period of up to 28 days for other antidepressants, subjects with MDD and a MADRS total score >/=28 and a Clinical Global Impression-Severity (CGI-S) score >/=4 were enrolled on Day 1 into an open-label citalopram-only phase of the study. This phase lasted 8 weeks, with citalopram (CIT) dose increased from a once-daily dose of 20 mg (Day 1 through Week 4) to 40 mg (Week 4 through Week 8). A total of 579 subjects entered the open-label citalopram phase. At Week 8, subjects who tolerated 40 mg CIT, but whose MADRS score was reduced <50% from baseline and no lower than 17, and CGI-S≧4, were considered inadequate responders. These subjects (n=270) were randomized in a double-blind fashion to receive either placebo or TC-5214-23 as add-on therapy to continued CIT. The double-blind phase of the study also lasted 8 weeks (Week 8 to Week 16). Study drug, TC-5214-23 or placebo, was started at 2 mg daily (1 mg twice per day [BID] dosing), added on to continuing CIT (40 mg PO qd). After 2 weeks of treatment, the dose of TC-5214 could be increased to 4 mg (2 mg BID) or continued unchanged, with up-titration based upon good tolerability and inadequate therapeutic response. After a further 2 weeks, the dose of TC-5214 could be increased again to 8 mg (4 mg BID) if judged appropriate by the investigator, based upon good tolerability and inadequate therapeutic response. At any time during the double-blind phase of the study, placebo or TC-5214-23 could be reduced to the previous dose level following the emergence of unacceptable adverse events (AEs). […] At this follow-up, any signs or symptoms of relapse were evaluated. If a subject was prematurely discontinued from the study between Week 8 and Week 16 for any reason, the investigator was to make every effort to perform all evaluations as per protocol, assuming the subject had reached the end of the double-blind add-on treatment phase. These evaluations were to be made as soon as possible and within 2 weeks of discontinuation. […] There was no meaningful difference in results as a function of age, gender, site, or smoking status. With regard to efficacy endpoints, the following tables present efficacy used in the ITT (Intent-to-Treat) and PP (Per Protocol) populations unless otherwise specific. The primary inference was based upon Week 16 visit using the ITT population. Change from baseline was obtained by subtracting the baseline values from the individual on-treatment values. Change from Week 16 was obtained by subtracting the Week 16 values from the individual follow-up visit (Week 18/19) values. If either the baseline or Week 16 or on-treatment or follow-up value was missing, the change from baseline or Week 16 value was also set to missing. To account for missing data, the last observation carry forward (LOCF) method was used for the ITT and PP populations. Thus, the last available on-therapy observation for a subject, including the observation at premature discontinuation, was used to estimate subsequent missing data points. […]

[1] = ITT Population, Double Blind Week 16 LOCF
[2] = ITT Population, Double Blind Week 18 LOCF (Follow-up)
[3] = PP Population, Double Blind Week 16 LOCF
[4] = PP Population, Double Blind Week 18 LOCF (Follow-up)

CNC1(C)C2CCC(C2)C1(C)C (stereo in doubt) [TC-5214, (S)—N,2,3,3-tetramethylnorbornan-2-amine]
CGI-I Adjusted Mean [1]: 1.91
CGI-I Mean Difference between TC-5214 and Placebo [1]: 0.79
CGI-I Adjusted Mean [2]: 1.90
CGI-I Mean Difference between TC-5214 and Placebo [2]: 0.71
CGI-I score compared with placebo (ITT and PP populations, Week 16 and Week 18, result in words): statistically significant decreases (improvements)
CGI-GI Difference vs Placebo + CIT (ITT, Week 16 LOCF): −0.79
CGI-GI Adj. Mean (ITT, Week 16 LOCF, add-on to citalopram): 1.91
CGI-I Adjusted Mean [3]: 1.84
CGI-I Mean Difference between TC-5214 and Placebo [3]: 0.78
CGI-I Adjusted Mean [4]: 1.83
CGI-I Mean Difference between TC-5214 and Placebo [4]: 0.71
